# Assay results from patent US9101613B2, “Methods for treating neurological disease” (Neurim Pharmaceuticals (1991) Ltd., priority 2006, dated 2015).
# Legend:
# MT-3 receptor = target: T1, MT-3 receptor (Mesocricetus auratus, UniProt A0ABM2YAB8); assay: 125I-melatonin binding in hamster brain membranes, MT-3
# T1 construct: from tissue; host or cells: hamster brain membranes
# T1 sequence (A0ABM2YAB8 1-231): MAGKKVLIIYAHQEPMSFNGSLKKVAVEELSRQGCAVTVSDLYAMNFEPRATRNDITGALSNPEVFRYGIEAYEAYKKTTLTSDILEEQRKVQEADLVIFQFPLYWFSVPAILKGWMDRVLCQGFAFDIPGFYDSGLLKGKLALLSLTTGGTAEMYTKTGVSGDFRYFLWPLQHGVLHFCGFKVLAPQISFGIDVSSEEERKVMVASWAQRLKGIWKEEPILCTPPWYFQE
# Experimental: Aliquots of suspended membranes of human recombinant CHP-K1 (Chinese hamster ovary) cells stably expressing human melatonin-1 or melatonin-2 (MT-1 or MT-2) receptors or of hamster brain (MT-3) were incubated at 25° C. with 0.05 nM ^125I-melatonin in buffer (25 mM HEPES, pH 7.4, 5 mM MgCl2, 1 mM CaCl2, 0.5% BSA) or with 0.1 nM for MT-3 alone or in the presence of 1 nM, 10 nM, 0.1 μM, 1 μM and 10 μM of test substances N-[2-(5-methoxy-indol-3-yl)-ethyl]-commenamide, N-[2-(5-methoxy-indol-3-yl)-ethyl]-comanilamide, N-[2-(5-methoxy-indol-3-yl)-ethyl]-coumalylamide, N-[2-(5-methoxy-indol-3-yl)-ethyl]-2-methoxy-commenamide, N-[2-(5-methoxy-indol-3-yl)-ethyl]-chelidonamide, O-[2-(5-methoxy-indol-3-yl)-ethyl]-comenic ester, N-[2-(5-methoxy-indol-3-yl)-ethyl]-2-Pyrone-6-carboxamide and N-[2-(2-bromo-5-methoxy-indol-3-yl)-ethyl]-coumalylamide for 3 hours for MT-1, 4 hours for MT-2 and 30 min for MT-3. The binding reaction was terminated and the membranes were washed with 4 ml of ice-cold HEPES buffer by vacuum filtration. Membranes were then collected, and the filters containing the bound ^125I-melatonin were assayed for the amount of radioactivity in a […]. Non-specific binding was evaluated using a reaction with 1 μM 6-chloromelatonin (MT-1 and MT-2) or 30 μM melatonin (MT-3).
# CD1 mice = assay: Motimeter assay (motor activity and rearing); format: in vivo; conditions: 100 mg/kg i.p.
# Experimental: Mice were starved for 16 hrs before treatment. Male CD1 mice, weighing 25-30 g, were treated intraperitoneally with melatonin, N-[2-(5-methoxy-indol-3-yl)-ethyl]-comanilamide or N-[2-(5-methoxy-indol-3-yl)-ethyl]-commenamide in a dose of 100 mg/kg. The horizontal (i.e. locomotion) and vertical (i.e. rearing) movements were measured for 5 minutes two times, 30 and 60 min after treatment. Eight mice/group were used. The 4-channel activity meter is a square-shaped frame containing transparent infra-red permeable acrylic cages. The frames feature two pairs of light-beam strips for measuring horizontal movements, and two pairs for measuring rearing. Each strip is equipped with 16 infra-red sensors.
# 3T3-L1 adipocytes = assay: 2-[3H]-deoxy-d-glucose uptake in FFA-treated 3T3-L1 adipocyte model; format: cell-based
# Experimental: Adipocytes were glucose-starved for 1 h in Hepes-salt buffer containing 2% FFA-free BSA. FFA (free fatty acids) were then added to the cells at the indicated concentrations (300 μM) for the indicated times (3 h). 10 min before the end of the FFA treatment, the cells were stimulated with insulin (20 nM)/melatonin (10 nM)/test compounds (10 nM) at 37° C. 2-[^3H]-deoxy-d-glucose at 1 μCi/mL and 0.1 mM unlabeled 2-deoxyglucose in KRP-HEPES buffer was added and cells were incubated for 10 min at room temperature. Non-specific glucose uptake was measured by parallel incubations in the presence of 10 μM cytochalasin B, which blocks transporter-mediated glucose uptake, and was subtracted from total uptake in each assay. Cells were then washed three times with ice-cold phosphate buffered saline (PBS) and solubilized in 1M NaOH for 20 minutes. The sample was then counted using a scintillation counter. 2-[^3H]-deoxy-d-glucose uptake was assayed in triplicates for each condition in at least 3 independent experiments. 2-[^3H]-deoxy-d-glucose uptake (counts per minute-cpm) are presented as mean+SE of triplicates in a representative experiment or results of three independent experiments. ANOVA test was used with significance of P<0.05 (Table 7).
# PC12 cells = assay: Glutamate-induced loss of cell viability in PC12 cells (MTT); format: cell-based; conditions: 1 uM, without glutamate
# Experimental: For the cell viability assays, 24 h after seeding in 96-well plates, the cultures were pretreated with N-[2-(5-methoxy-indol-3-yl)-ethyl]-comanilamide (100 pm, 1 nM, 10 nM, 100 nM, 1 uM and 10 uM) or melatonin (1 uM) for 0 h before exposure to 4 mM glutamate. After 24 h incubation, cellular viability was evaluated by MTT assay.
# PC12 cell viability was determined by the conventional 3-(4,5-dimethylthiazol-2-yl)-2,5-diphenyltetrazolium bromide (MTT) assay. PC12 cells were treated with MTT solution (0.5 mg/ml) and were then incubated at 37° C. for 4 hrs. The medium was removed and 150 μl DMSO/well was added to dissolve formazan. The absorbance at 570 nm was recorded using an enzyme-linked immunosorbent assay reader and the percentage of cell growth inhibition was calculated as follows: Cell viability (%)=A570 (treatment)/A570 (control)×100.
structure (smiles),measurement,setting,value
"COc1ccc2[nH]cc(CCNC(C)=O)c2c1 [Melatonin, N-acetyl-5-methoxy-tryptamine, reference compound]",IC50,"MT-3 receptor; 0.1 nM 125I-melatonin, 30 min, read-out: MT-3 receptor binding IC50",47 nM
same,Ki,"MT-3 receptor; 0.1 nM 125I-melatonin, 30 min, read-out: MT-3 receptor binding KI",46 nM
same,inhibition at 10 µM,MT-3 receptor; read-out: MT-3 receptor binding % inhibition by 10 μM,100%
same,effect on motor activity and rearing,CD1 mice; 30-35 min and 60-65 min after treatment,did not change significantly the motor activity and rearing
same,motor activity (horizontal movement) changes (%) 30 min,"CD1 mice; 30 min, vs vehicle",−26.5%
same,motor activity (horizontal movement) 30 min Means ± SE,"CD1 mice; 30 min after treatment, 5 min measurement",316.1 ± 45.5
same,motor activity (horizontal movement) changes (%) 60 min,"CD1 mice; 60 min, vs vehicle",−19.0%
same,motor activity (horizontal movement) 60 min Means ± SE,"CD1 mice; 60 min after treatment, 5 min measurement",256.1 ± 27.3
same,effect on glucose transport in FFA-treated adipocytes,3T3-L1 adipocytes; FFA-impaired insulin signaling,improved glucose transport
same,2-[3H]-deoxy-d-glucose uptake (cpm),3T3-L1 adipocytes; Insulin 20 nM + FFA 300 μM (3 h) + substance 10 nM,1489 cpm
same,effect on cell viability without glutamate,PC12 cells,had no effect on the cell viability
